Laboratory results taken from ChEMBL document CHEMBL3832048, “DailyMed|setid=020d34eb-9560-4218-9d87-dfdeff705c3a | BICALUTAMIDE - bicalutamide tablet, film coated|Physicians Total Care, Inc”.

Key:
[1] = (§1) Pharmacokinetic parameters for Bicalutamide following single oral administration of Bicalutamide tablets to 30 healthy male subjects and 40 patients with prostrate cancer.; assay type: ADME, organism-based; parameters: route oral; conditions: human, in vivo, dosed compound id 25, dosed compound name BICALUTAMIDE, gender male, regimen Single dose, tissue Plasma
Homo sapiens = test: as §1; assay type: ADME, organism-based; parameters: route oral; conditions: in vivo, po, dosed compound id 25, dosed compound name BICALUTAMIDE, gender male, regimen Single dose, tissue Plasma

With `CC(O)(CS(=O)(=O)c1ccc(F)cc1)C(=O)Nc1ccc(C#N)c(C(F)(F)F)c1` (stereo not given) [BICALUTAMIDE] the Cmax ([1]; po) was 768 ng/mL, the CL/F ([1]; route oral) was 5.33 mL/min and the Tmax ([1]; route oral) was 31.3 h. It also gave a half-life ([1]; route oral) of 139 h and a Css (Homo sapiens) of 8939 ng/mL.
